In brackets after ≈: the same amount, converted by molar mass. Like-named read-outs stand apart in the source and are kept apart here.
What was measured:
[1] = system: Moloney Sarcoma Virus (MSV); assay: Inhibition of MSV-M foci formation in mouse embryo fibroblasts; type: cell-based; conditions: Fibroblast, 120 h, 3 days treatment
Experimental: (§1) Mouse embryo fibroblasts (MEF) were plated on 35 mm. Falcon plastic dishes and infected 24 hours later with Moloney Sarcoma Virus (MSV) in the presence of DEAE-dextran (25 μg./ml.). The samples were then treated for 3 days with different concentrations of the compounds of the invention. The number of foci of transformed cells was microscopically determined 5 days after the infection. Uninfected MEF were similarly treated and at the end of the experiment, the cells were counted in an haemocytometer. In all the experiments, the cells were incubated in a 5% CO2 incubator at 37° C.
(§2) For use in these tests the compounds were dissolved in distilled water or in 5% ethyl alcohol in distilled water and then diluted in culture medium.
The results of these tests are reported in Table I in terms of ID50 values (Inhibiting Dose 50%), calculated on dose-effects lines.

[2] = Proliferation of uninfected mouse embryo fibroblasts (MEF); type: cell-based; conditions: mouse, mouse embryo fibroblasts; calculated on dose-effects lines; uninfected MEF, 3 days treatment; read-out: MEF proliferation ID 50 (Inhibiting Dose 50%)
Experimental: as §1, §2

Mouse Embryo Fibroblasts = assay: as above; type: cell-based; conditions: Mus musculus, Fibroblast, 72 h, uninfected MEF, 3 days treatment, read-out: MEF No. of cells
Experimental: as §1, §2

[3] = Antitumor activity and toxicity on ascites Sarcoma 180 in CD 1 mice; type: in vivo; conditions: mouse, in vivo, ip, read-out: % Toxic Deaths
Experimental: (§3) The antitumor activity of the compounds of the invention was tested on ascites Sarcoma 180.
(§4) Three month old CD 1 mice were used. Sarcoma 180 ascites cells were inoculated intraperitoneally (10^6 cells/mouse). For use in these tests, the compounds were dissolved in distilled water or in 5% ethyl alcohol in distilled water, then diluted with Ringers solution and administered i.p. 1 day after the tumor implant (10 ml./kg. of body weight).
(§5) The toxicity of the test compounds was evaluated by macroscopic autoptic examination mainly in terms of reduction in spleen size. The comparison of the effectiveness of the test compounds is based on the maximum increase in median survival time, as compared to untreated controls, over the dose range used. The number of Long Term Survivors (LTS) refers to tumor-free mice at the end of the experiment (60 days). Solid Sarcoma 180 was implanted subcutaneously by trocar in the flank of CD 1 mice according to standard methods. The mice were treated i.v. for 5 consecutive days, starting 1 day after the tumor implant. On the 11th day the tumor volume was measured by means of a caliper and evaluated according to the formula (a^2 × b)/2, a and b being the minimum and the maximum diameters respectively.

ascites Sarcoma 180 = assay: as above; type: in vivo; conditions: for % LTS: 60 days; for LTS (Long Term Survivors after 60 days): survivors/total; for Toxic Deaths: deaths/total
Experimental: as §3, §4, §5

Solid Sarcoma 180 = assay: Antitumor activity and toxicity on solid Sarcoma 180 in CD 1 mice; type: in vivo; conditions: for Tumor Volume T/C %: 11th day; for Toxic Deaths: deaths/total
Experimental: as §5

[4] = 0.2 mg./kg. i.p. 1 day after tumor implant
[5] = 1 mg./kg. i.p. 1 day after tumor implant
[6] = 5 mg./kg. i.p. 1 day after tumor implant
[7] = 12.5 mg./kg. i.p. 1 day after tumor implant
[8] = 25 mg./kg. i.p. 1 day after tumor implant
[9] = 50 mg./kg. i.p. 1 day after tumor implant
[10] = 75 mg./kg. i.p. 1 day after tumor implant
[11] = 100 mg./kg. i.p. 1 day after tumor implant
[12] = 200 mg./kg. i.p. 1 day after tumor implant
[13] = 12.5 mg./kg. i.v. for 5 consecutive days
[14] = 25 mg./kg. i.v. for 5 consecutive days
[15] = 50 mg./kg. i.v. for 5 consecutive days

COc1cccc2c1C(=O)c1c(O)c3c(c(O)c1C2=O)C[C@@](O)(C(=O)CN(CCO)CCO)C[C@@H]3O[C@H]1C[C@H](N)[C@H](O)[C@H](C)O1 [14-diethanolaminodaunomycin]
IC50 ([1]; calculated on dose-effects lines, read-out: MSV-M foci ID 50 (Inhibiting Dose 50%)): 0.052 µg/mL (≈ 0.0825 µM)
activity at 0.0062 µg/mL ([1]; dose 0.0062 μg/ml, foci counted 5 days after infection, read-out: MSV-M No. of foci): 75%
activity at 0.025 µg/mL ([1]; dose 0.0250 μg/ml, foci counted 5 days after infection, read-out: MSV-M No. of foci): 73%
activity at 0.1 µg/mL ([1]; dose 0.1 μg/ml, foci counted 5 days after infection, read-out: MSV-M No. of foci): 21%
activity at 0.4 µg/mL ([1]; dose 0.4 μg/ml, foci counted 5 days after infection, read-out: MSV-M No. of foci): 0%
IC50 at 72 h [2]: 0.13 µg/mL (≈ 0.206 µM)
activity at 0.0062 µg/mL (Mouse Embryo Fibroblasts; dose 0.0062 μg/ml): 100%
activity at 0.025 µg/mL (Mouse Embryo Fibroblasts; dose 0.0250 μg/ml): 95%
activity at 0.1 µg/mL (Mouse Embryo Fibroblasts; dose 0.1 μg/ml): 56%
activity at 0.4 µg/mL (Mouse Embryo Fibroblasts; dose 0.4 μg/ml): 25%
mortality ([3]; 0.2 mg./kg. i.p.): 0%
mortality ([3]; 1 mg./kg. i.p.): 0%
mortality ([3]; 5 mg./kg. i.p.): 0%
mortality ([3]; 12.5 mg./kg. i.p.): 0%
mortality ([3]; 25 mg./kg. i.p.): 0%
mortality ([3]; 50 mg./kg. i.p.): 0%
mortality ([3]; 75 mg./kg. i.p.): 10%
mortality ([3]; 100 mg./kg. i.p.): 42%
mortality ([3]; 200 mg./kg. i.p.): 100%
T/C (median survival time, % over untreated controls) (ascites Sarcoma 180; [4]): 106%
% LTS (ascites Sarcoma 180; [4]): 0%
LTS (Long Term Survivors after 60 days) (ascites Sarcoma 180; [4]): 0/10
Toxic Deaths (ascites Sarcoma 180; 0.2 mg./kg. i.p.): 0/10
T/C (median survival time, % over untreated controls) (ascites Sarcoma 180; [5]): 103%
% LTS (ascites Sarcoma 180; [5]): 0%
LTS (Long Term Survivors after 60 days) (ascites Sarcoma 180; [5]): 0/10
Toxic Deaths (ascites Sarcoma 180; 1 mg./kg. i.p.): 0/10
T/C (median survival time, % over untreated controls) (ascites Sarcoma 180; [6]): 124%
% LTS (ascites Sarcoma 180; [6]): 0%
LTS (Long Term Survivors after 60 days) (ascites Sarcoma 180; [6]): 0/10
Toxic Deaths (ascites Sarcoma 180; 5 mg./kg. i.p.): 0/10
T/C (median survival time, % over untreated controls) (ascites Sarcoma 180; [7]): 181%
% LTS (ascites Sarcoma 180; [7]): 0%
LTS (Long Term Survivors after 60 days) (ascites Sarcoma 180; [7]): 0/10
Toxic Deaths (ascites Sarcoma 180; 12.5 mg./kg. i.p.): 0/10
T/C (median survival time, % over untreated controls) (ascites Sarcoma 180; [8]): 187%
% LTS (ascites Sarcoma 180; [8]): 20%
LTS (Long Term Survivors after 60 days) (ascites Sarcoma 180; [8]): 4/20
Toxic Deaths (ascites Sarcoma 180; 25 mg./kg. i.p.): 0/20
T/C (median survival time, % over untreated controls) (ascites Sarcoma 180; [9]): 175%
% LTS (ascites Sarcoma 180; [9]): 23%
LTS (Long Term Survivors after 60 days) (ascites Sarcoma 180; [9]): 4/17
Toxic Deaths (ascites Sarcoma 180; 50 mg./kg. i.p.): 0/17
T/C (median survival time, % over untreated controls) (ascites Sarcoma 180; [10]): 170%
% LTS (ascites Sarcoma 180; [10]): 0%
LTS (Long Term Survivors after 60 days) (ascites Sarcoma 180; [10]): 0/10
Toxic Deaths (ascites Sarcoma 180; 75 mg./kg. i.p.): 1/10
T/C (median survival time, % over untreated controls) (ascites Sarcoma 180; [11]): 83%
% LTS (ascites Sarcoma 180; [11]): 0%
LTS (Long Term Survivors after 60 days) (ascites Sarcoma 180; [11]): 0/7
Toxic Deaths (ascites Sarcoma 180; 100 mg./kg. i.p.): 3/7
T/C (median survival time, % over untreated controls) (ascites Sarcoma 180; [12]): 25%
% LTS (ascites Sarcoma 180; [12]): 0%
LTS (Long Term Survivors after 60 days) (ascites Sarcoma 180; [12]): 0/7
Toxic Deaths (ascites Sarcoma 180; 200 mg./kg. i.p.): 7/7
Tumor Volume T/C % (Solid Sarcoma 180; [13]): 82%
Toxic Deaths (Solid Sarcoma 180; [13]): 1/5
Tumor Volume T/C % (Solid Sarcoma 180; [14]): 66%
Toxic Deaths (Solid Sarcoma 180; [14]): 1/5
Tumor Volume T/C % (Solid Sarcoma 180; [15]): 44%
Toxic Deaths (Solid Sarcoma 180; [15]): 0/5
inhibition of tumor growth on solid Sarcoma 180 (Solid Sarcoma 180; at non-toxic doses): marked inhibition of tumor growth, at non-toxic doses
